# Laboratory results from patent US12594282B2, “Use of small molecule compounds in the treatment of diseases mediated by lung epithelial cell injury and/or vascular endothelial cell injury” (Guangzhou Cellprotek Pharmaceutical Co., Ltd., priority 2020, dated 2026).
# Tests used:
# [1] = tested on: LPS-induced acute lung injury; experiment: LPS-induced acute lung injury in rats (HE pathology, Smith score); assay type: in vivo, rat; conditions: for lung injury pathological score vs LPS model group: tail vein every 6 h x4, 24 h after LPS 6.4 mg/kg
# Method: Animal grouping: 60 qualified rats with uniform body weight were selected and included in the experiment, and were randomly divided into 6 groups according to body weight, 10 rats/group. The animal grouping and the drug treatment dose of each group were as follows:
# Drug administration: Test drugs were administered by tail vein at 0.3 mL/100 g body weight, hydrocortisone (25 mg/kg) was administered intraperitoneally at 0.5 mL/100 g body weight; the first administration for all the test agents were performed 0.5 h before LPS administration in the model. The test drug solvent and YC-6 were intravenously injected once every 6 h for a total of 4 injections, and the hydrocortisone (HC) group was intraperitoneally injected once every 12 h for a total of 2 injections.
# After the rats were weighed and anesthetized by isoflurane, they were fixed in a supine position. The hair in the skin of the neck was removed, the skin of the neck was sterilized with 75% ethanol, and incised in the middle, after which the subcutaneous tissue was bluntly separated, and the upper trachea was exposed. 8 mg/mL LPS solution was injected into the trachea with a syringe, 0.2 mL/rat, and each rat was calculated as having body weight of […], and the dose was 6.4 mg/kg. Immediately after injection, the rats were erected, shaken, and rotated to distribute the LPS solution evenly in the lungs. The skin was sutured and disinfected with iodophor.
# 24 h after LPS injection, the animals were anesthetized by intraperitoneal injection of 20% […] solution at a volume of 6 mL/kg body weight. After the abdominal aorta was bled till the animal was dead, the thoracic cavity was exposed, and the lung tissue was collected. The left lung was fixed in 10% paraformaldehyde solution for 48 hours, after which the coronal plane of the left lung was cross-sectioned into two equal-width upper and lower parts, and then the lower half of the left lung was cross-sectioned into two equal-width parts according to the coronal plane. The sagittal plane of the upper half of the left lung and the coronal plane of the two lower half of the left lung were embedded in a paraffin block, sectioned and stained with hematoxylin-eosin (HE).
# Tissue dehydration and paraffin embedding: The tissue was taken out of the fixative and successively immersed in 50% ethanol (30 min)-70% ethanol (overnight)-80% ethanol (30 min)-90% ethanol (30 min)-95% ethanol (30 min)-absolute ethanol (2 times, 30 min each time)-xylene (2 times, 5˜10 min each time, until the sample was completely transparent)-62° C. paraffin (3 times, 1 hour each time), followed by tissue embedding. Tissue paraffin sectioning: The thickness was 3 μm, the sections were dried on a microtome, and then placed in a 37° C. oven to dry overnight, and then used for HE staining. […]
# [2] = tested on: NR4A3; experiment: NR4A3/CD31 immunofluorescence of lung tissue, acute hypobaric hypoxia; assay type: in vivo, Macaca fascicularis
# Method: Paraffin sections of Macaca fascicularis lung tissue, include 3 in the normal control group (normobaric normoxia, NN), 5 in the acute hypobaric hypoxia treatment group (hypobaric hypoxia, HH), and 5 in the acute hypobaric hypoxia+YC-6 treatment group (HH+YC-6).
# The paraffin sections were placed in a 65° C. oven for 30 minutes, and then quickly transferred to 100% xylene for dewaxing, and then subjected to rehydration according to the regular process (100% xylene, 5 min—100% xylene, 2 min—100% xylene, 2 min—100% ethanol, 1 min—100% ethanol, 1 min—95% ethanol, 1 min—90% ethanol, 1 min—B0% ethanol, 1 min—70% ethanol, 1 min—50% ethanol, 1 min—distilled water, 1 min×3), and then EDTA antigen retrieval solution (microwave heating) was used for antigen retrieval. After the retrieval, it was naturally cooled to room temperature, and then washed three times with PBS for 5 minutes each time. The residual PBS on the tissue section was removed. A circle was drew around the tissue with an immunohistochemical pen, and then the corresponding primary antibody diluted in DAKO antibody diluent was added to the tissue to make it completely cover the tissue. The tissue section was incubated overnight in a humidified chamber at 4° C. Then it was washed 3 times with PBS for 5 minutes each time. […]
# [3] = 12, 40, 120 mg/kg/d, HE staining
compound,measurement,setting,value
"C[C@@]12CCCC1C1C[C@@H](O)[C@]3(O)C[C@@H](O)CC[C@]3(C)C1CC2 (stereo partly drawn) [YC-6, 5α-androst-3β,5,6β-triol]",lung injury pathological score vs LPS model group,[1]; 12 mg/kg/d,significantly lower pathological scores
same,lung injury pathological score vs LPS model group,[1]; 40 mg/kg/d,significantly lower pathological scores
same,lung injury pathological score vs LPS model group,[1]; 120 mg/kg/d,significantly lower pathological scores
same,alveolar damage vs LPS model group,[1]; [3],reduced alveolar damage
same,inflammatory cell infiltration in lung tissue vs LPS model group,[1]; [3],reduced inflammatory cell infiltration
same,protective effect (pathological score) compared with 50 mg/kg/d hydrocortisone,"[1]; low-dose group (12 mg/kg/d), P<0.05",significantly better protective effect
same,NR4A3 protein expression in lung tissue endothelial cells,"[2]; NR4A3 co-localized with CD31, immunofluorescence",significantly increased the protein expression of NR4A3
same,expression of vascular endothelial cell marker CD31 in lung tissue,[2]; immunofluorescence,inhibited the down-regulation of the expression of vascular endothelial cell marker CD31
